Results taken from ChEMBL document CHEMBL4270495, “Oleanane-, ursane-, and quinone methide friedelane-type triterpenoid derivatives: Recent advances in cancer treatment” (Eur J Med Chem, 2017).

Assays:
Bel-7402 = experiment: Cytotoxicity in human Bel7402 cells assessed as reduction in cell viability incubated for 72 hrs by MTT assay; assay type: functional, cell-based; details: Bel-7402, 72 h
H4 = experiment: Cytotoxicity in human H4 cells assessed as reduction in cell viability incubated for 72 hrs by MTT assay; assay type: functional, cell-based; details: H4, 72 h
HepG2 [1] = experiment: Cytotoxicity in human HepG2 cells assessed as reduction in cell viability incubated for 72 hrs by MTT assay; assay type: functional, cell-based; details: HepG2, 72 h
EA.hy 926 = experiment: Cytotoxicity in human EAhy926 cells assessed as reduction in cell viability incubated for 72 hrs by MTT assay; assay type: cell-based; details: EA.hy 926, 72 h
HeLa [2] = experiment: Cytotoxicity in human HeLa cells assessed as reduction in cell viability incubated for 72 hrs by MTT assay; assay type: functional, cell-based
H9c2 = experiment: Cytotoxicity in rat H9c2 cells assessed as reduction in cell viability incubated for 72 hrs by MTT assay; assay type: cell-based; details: H9c2, 72 h
HT-29 [3] = experiment: Cytotoxicity in human HT-29 cells assessed as reduction in cell viability incubated for 72 hrs by MTT assay; assay type: functional, cell-based; details: HT-29, 72 h
MDCK = experiment: Cytotoxicity in canine MDCK cells assessed as reduction in cell viability incubated for 72 hrs by MTT assay; assay type: cell-based; details: Canis lupus familiaris
TERT-RPE1 = experiment: Cytotoxicity in human hTERT-RPE1 cells assessed as reduction in cell viability incubated for 24 hrs by MTT assay; assay type: functional, cell-based; details: RPE-1, 24 h
DU-145 = experiment: Cytotoxicity in human DU145 cells assessed as reduction in cell viability incubated for 96 hrs by SRB assay; assay type: functional, cell-based; details: DU-145, 96 h
MCF7 [4] = experiment: Cytotoxicity in human MCF7 cells assessed as reduction in cell viability incubated for 24 hrs by MTT assay; assay type: functional, cell-based; details: MCF7, 24 h
CT26 = experiment: Cytotoxicity in mouse CT26 cells assessed as reduction in cell viability incubated for 96 hrs by SRB assay; assay type: functional, cell-based; details: CT26, 96 h
4T1 = experiment: Cytotoxicity in mouse 4T1 cells assessed as reduction in cell viability incubated for 96 hrs by SRB assay; assay type: functional, cell-based; details: 4T1, 96 h
MDA-MB-231 [5] = experiment: Cytotoxicity in human MDA-MB-231 cells assessed as reduction in cell viability incubated for 24 hrs by MTT assay; assay type: functional, cell-based; details: MDA-MB-231, 24 h
HT-29 [6] = experiment: Cytotoxicity in human HT-29 cells assessed as reduction in cell viability incubated for 96 hrs by SRB assay; assay type: functional, cell-based; details: HT-29, 96 h
PC-3 = experiment: Cytotoxicity in human PC3 cells assessed as reduction in cell viability incubated for 96 hrs by SRB assay; assay type: functional, cell-based; details: PC-3, 96 h
HCT-116 = experiment: Cytotoxicity in human HCT116 cells assessed as reduction in cell viability incubated for 96 hrs by SRB assay; assay type: functional, cell-based; details: HCT-116, 96 h
HCT-8 = experiment: Cytotoxicity in human HCT8 cells assessed as reduction in cell viability incubated for 96 hrs by SRB assay; assay type: functional, cell-based; details: HCT-8, 96 h
MDA-MB-231 [7] = experiment: Cytotoxicity in human MDA-MB-231 cells assessed as reduction in cell viability incubated for 96 hrs by SRB assay; assay type: functional, cell-based; details: MDA-MB-231, 96 h
[8] = Cytotoxicity in human HELF cells assessed as reduction in cell viability incubated for 24 hrs by MTT assay; assay type: cell-based
HepG2 [9] = experiment: Cytotoxicity in human HepG2 cells assessed as reduction in cell viability incubated for 24 hrs by MTT assay; assay type: functional, cell-based; details: HepG2, 24 h
AGS = experiment: Cytotoxicity in human AGS cells assessed as reduction in cell viability incubated for 24 hrs by MTT assay; assay type: functional, cell-based
HeLa [10] = experiment: Cytotoxicity in human HeLa cells assessed as reduction in cell viability incubated for 24 hrs by MTT assay; assay type: functional, cell-based
MDA-MB-231 [11] = experiment: Cytotoxicity in human MDA-MB-231 cells assessed as reduction in cell viability incubated for 48 hrs by SRB assay; assay type: functional; details: MDA-MB-231, 48 h
MCF7 [12] = experiment: Cytotoxicity in human MCF7 cells assessed as reduction in cell viability incubated for 48 hrs by SRB assay; assay type: functional, cell-based; details: MCF7, 48 h

| SMILES | IC50 (Bel-7402) [µM] | IC50 (H4) [µM] | IC50 (HepG2 [1]) [µM] | IC50 (EA.hy 926) [µM] | IC50 (HeLa [2]) [µM] | IC50 (H9c2) [µM] | IC50 (HT-29 [3]) [µM] | IC50 (MDCK) [µM] | other results |
| --- | --- | --- | --- | --- | --- | --- | --- | --- | --- |
| COC(=O)[C@]1(C)CC[C@]2(C)CC[C@]3(C)C4=CC(c5c[nH]c6ccc(OC)cc56)c5c(cc(OC)c(OC)c5C)C4(C)CC[C@@]3(C)[C@H]2C1 (single isomer, unassigned) | 0.51 | 4.59 | – | – | – | – | – | – | – |
| Cc1ccc2c(C3C=C4C(C)(CC[C@@]5(C)[C@H]6C[C@](C)(C(=O)O)CC[C@]6(C)CC[C@]45C)c4cc(O)c(O)c(C)c43)c[nH]c2c1 (single isomer, unassigned) | 5.52 | 6.66 | – | – | – | – | – | – | – |
| COc1ccc(/C=C/C(=O)O[C@H]2CC[C@]3(C)[C@H]4C(=O)C=C5[C@H]6C[C@@](C)(C(=O)O)CC[C@]6(C)CC[C@@]5(C)[C@]4(C)CC[C@H]3C2(C)C)cc1 | – | – | 31.2 | > 50 | 23.4 | 36.1 | 33 | 21.7 | – |
| Cc1c(O)c(O)cc2c1C(c1c[nH]c3cc(Cl)ccc13)C=C1C2(C)CC[C@@]2(C)[C@H]3C[C@](C)(C(=O)O)CC[C@]3(C)CC[C@]12C (single isomer, unassigned) | 6.53 | 7.83 | – | – | – | – | – | – | – |
| COc1ccc(/C=C/C(=O)O[C@H]2CC[C@]3(C)[C@H]4C(=O)C=C5[C@H]6C[C@@](C)(C(=O)O)CC[C@]6(C)CC[C@@]5(C)[C@]4(C)CC[C@H]3C2(C)C)c(OC)c1OC | – | – | 21.5 | 27.7 | 8.54 | > 50 | 15 | 31.8 | – |
| CC(=O)Nc1ccc(SC2C=C3C(C)(CC[C@@]4(C)[C@@H]5C[C@](C)(C(=O)O)CC[C@]5(C)CC[C@]34C)c3cc(OC(C)=O)c(OC(C)=O)c(C)c32)cc1 (single isomer, unassigned) | 0.46 | 0.35 | – | – | – | – | – | – | – |
| CC1(C)[C@@H](O)CC[C@]2(C)[C@H]3C(=O)C=C4[C@H]5C[C@@](C)(C(=O)O)CC[C@]5(C)CC[C@@]4(C)[C@]3(C)CC[C@@H]12 | – | – | > 50 | > 100 | > 50 | > 100 | > 50 | > 100 | IC50 (TERT-RPE1): 63.4 µM; IC50 (DU-145): 136 µM; IC50 (MCF7 [4]): 75.7 µM; IC50 (CT26): 70.5 µM; IC50 (4T1): 96.2 µM; IC50 (MDA-MB-231 [5]): 84.7 µM; IC50 (HT-29 [6]): 77.2 µM; IC50 (PC-3): 88 µM; IC50 (HCT-116): 75.1 µM; IC50 (HCT-8): 82.2 µM; IC50 (MDA-MB-231 [7]): 101 µM |
| CC1(C)[C@@H](OC(=O)/C=C/c2ccccc2)CC[C@]2(C)[C@H]3C(=O)C=C4[C@H]5C[C@@](C)(C(=O)O)CC[C@]5(C)CC[C@@]4(C)[C@]3(C)CC[C@@H]12 | – | – | 24.4 | 28.9 | 23.7 | 46.1 | 22.3 | 22.6 | – |
| COc1ccc(OC)c(/C=C/C(=O)O[C@H]2CC[C@]3(C)[C@H]4C(=O)C=C5[C@H]6C[C@@](C)(C(=O)O)CC[C@]6(C)CC[C@@]5(C)[C@]4(C)CC[C@H]3C2(C)C)c1 | – | – | 25.4 | 45.1 | 28 | > 50 | 26.4 | > 50 | – |
| C[C@H]1[C@H](C)CC[C@]2(C(=O)NCCCCCCN)CC[C@]3(C)C(=CC[C@@H]4[C@@]5(C)CC[C@H](O)C(C)(C)[C@@H]5CC[C@]43C)[C@H]12 | – | – | – | – | – | – | – | – | IC50 [8]: 12.4 µM; IC50 (HepG2 [9]): 13.4 µM; IC50 (AGS): 16.6 µM; IC50 (HeLa [10]): 13.3 µM |
| COC(=O)[C@]1(C)CC[C@]2(C)CC[C@]3(C)C4=CC(c5cn(C)c6cc(Cl)ccc56)c5c(cc(OC)c(OC)c5C)C4(C)CC[C@@]3(C)[C@H]2C1 (single isomer, unassigned) | 0.01 | 2.03 | – | – | – | – | – | – | – |
| COc1cccc2c1C(=O)c1c(O)c3c(c(O)c1C2=O)C[C@@](O)(C(=O)CO)C[C@@H]3O[C@H]1C[C@H](N)[C@H](O)[C@H](C)O1 [DOXORUBICIN] | – | – | – | – | – | – | – | – | IC50 (TERT-RPE1): 2.76 µM; GI50 (MDA-MB-231 [11]): 4.1 µM; GI50 (MCF7 [12]): 5.7 µM; IC50 (MCF7 [4]): 0.49 µM |
| CC(=O)CC1C=C2C(C)(CC[C@@]3(C)[C@@H]4C[C@](C)(C(=O)O)CC[C@]4(C)CC[C@]23C)c2cc(OC(C)=O)c(OC(C)=O)c(C)c21 (single isomer, unassigned) | > 150 | > 150 | – | – | – | – | – | – | – |
